In one series the test system is OCI-LY3. Briefly: Cell viability assay (CellTiter-Glo, ATP quantification). The class given is cell-based, human. Particulars: cell viability by ATP quantification, read-out: 50% inhibitory concentration (IC50). The procedure:
(§1) FIG. 3: Iron chelators and Ironomycin inhibit DLBCL cell growth DLBCL cells were incubated with different concentrations of iron chelators or vehicle for 96H. Inhibitory concentration 50% (IC50) was calculated with concentration-response curve after treatment with Deferoxamin (A), Deferasirox, (B) and Ironomycin (C). Cell viability was examined using quantification of ATP assay. Data are expressed as mean percentage+/−SEM of at least three independent experiments performed in sixplicate.
(§2) The 16 DLBCL cell lines (U2932, OCI-LY-3, NU-DHL-1, OCI-LY-19, DB, SUDHL4, OCILY1, SUDHL5, DOHH2, SUDHL10, HT, RI-1, SU-DHL-6, NUDUL-1, WSU-DLCL-2 and OCI-LY-7) were purchased from the DSMZ (Leibniz-Institut DSMZ—Deutsche Sammlung von Mikroorganismen und Zellkulturen GmbH, Germany). They were maintained in RPMI-1640 (Gibco, Invitrogen), supplemented with 10% fetal bovine serum (PAA laboratory GmbH) for U2932, SUDHL-4, HT, DOHH2, SUDHL-10, RI-1, WSU-DLCL-2 cell lines, 20% FBS OCI-LY3, DB, SUDHL-5, NUDHL-1, SU-DHL-6, NUDUL-1 cell lines. OCI-LY1 and OCI-LY7 were cultured in IMDM (Gibco, Invitrogen), supplemented with 20% fetal bovine serum and OCI-LY19 was cultured in MEM alpha modified (Gibco, Invitrogen), supplemented with 20% fetal bovine serum. Cultures were maintained at 37° C. in a humidified atmosphere with 5% CO2.
(§3) DLBCL-derived cell lines were cultured for 4 days in 96-well flat-bottom microtiter plates in RPMI 1640 medium, 10% or 20% FCS (control medium) in the presence of various compounds. The number of viable cells in culture was determined using the CellTiter-Glo Luminescent Cell Viability Assay from Promega, Madison, Wis., USA using a Centro LB 960 luminometer (Berthold Technologies, Bad Wildbad, Germany).
(§4) This test is based on quantitation of the intracellular ATP present, which signals the presence of metabolically active cells. Data are expressed as the mean percentage of six replicates, normalized to the untreated control.
In general terms: In ATP-based viability assays light output follows the ATP content of the culture.

The next series concerns SUDHL-5. The series is described as above. The class given is cell-based, human. Particulars: SUDHL-5, 96H, cell viability by ATP quantification, read-out: 50% inhibitory concentration (IC50). The procedure: as §1, §2, §3, §4
The next series has as its system DB. Described as above. The note with it: cell viability by ATP quantification, read-out: 50% inhibitory concentration (IC50). Type of series: cell-based, human. The protocol: as §1, §2, §3, §4
A further series relates to U2932. The description is as above. The note with it: cell viability by ATP quantification, read-out: 50% inhibitory concentration (IC50). The class given is cell-based, human. The protocol:
as §1, §2, §3, §4

Series [1] concerns OCI-LY3 and DB cell lines. The source says:
The inventors further investigated the effect of Iron supplementation on the cell death induced by these treatments. Iron chelators concentrations were chosen according the maximal plasmatic concentration achievable in the patient (Nisbet-Brown et al., 2003).
Chaetocin was used as positive control of ROS production inhibited by GSH (Isham et al., 2007).

The next series deals with DLBCL cells. Kind of series: Ferroptosis, Bodipy-C11 staining and ferrostatin-1 rescue. Type of series: cell-based, human.

The structures appear in SMILES notation. Where two headings read alike, the source gives them in different places.

Regarding `O=C(O)c1ccc(-n2nc(-c3ccccc3O)nc2-c2ccccc2O)cc1` [Deferasirox], the IC50 is 9.5 µM in the series with OCI-LY3 (Homo sapiens, OCI-Ly3, 96 h); 9.5 µM in the series with OCI-LY3 (OCI-LY3, 96H); 1.48 µM in the series on SUDHL-5 (Homo sapiens, SU-DHL-5, 96 h); 1.48 µM with SUDHL-5; 13.9 µM with DB (96H); 13.9 µM with DB (Homo sapiens, 96 h). The IC50 amounted to 4.79 µM in the series with U2932 (Homo sapiens, U2932, 96 h) and 4.79 µM in the series on U2932 (U2932, 96H). In addition, in series [1], the “effect of iron supplementation on drug-induced apoptosis / cytotoxicity” value is on record as “significantly inhibited”.
`CC(=O)N(O)CCCCCNC(=O)CCC(=O)N(O)CCCCCNC(=O)CCC(=O)N(O)CCCCCN` [Deferoxamine]: the IC50 in the series with OCI-LY3 (Homo sapiens, OCI-Ly3, 96 h) was 3.75 µM; in the series with OCI-LY3 (OCI-LY3, 96H) it was 3.75 µM; with SUDHL-5 (Homo sapiens, SU-DHL-5, 96 h), 1.55 µM; in the series on SUDHL-5 it was 1.55 µM; in the series with DB (96H) it was 3.25 µM; in the series on DB (Homo sapiens, 96 h), 3.24 µM. The IC50 was found to be 2.42 µM in the series on U2932 (Homo sapiens, U2932, 96 h) and 2.28 µM in the series on U2932 (U2932, 96H). The “effect of iron supplementation on drug-induced apoptosis / cytotoxicity” value in series [1] is listed as “significantly inhibited”.
With `CCOC(=O)c1ccc(NC2CCCCC2)c(N)c1` [Ferrostatin, Ferrostatin-1, reference compound], in the series on DLBCL cells, the “effect on erastin (ferroptosis inductor, positive control)” value is listed as “abrogated the effects of erastin” and the “toxicity in DLBCL cells” value is recorded as “did not demonstrated significant toxicity”.

The values above are taken from patent US20230220480A1, “IRON-SCORE AND IN VITRO METHOD FOR IDENTIFYING HIGH RISK DLBCL SUBJECTS AND THERAPEUTIC USES AND METHODS” (CENTRE NATIONAL DE LA RECHERCHE SCIENTIFIQUE (CNRS), priority 2019, published 2023).
